Data from US11219650B2, “Agent for preventing or treating small intestinal injury induced by specific NSAID and PPI” (priority 2018, dated 2022).

Experiments:
small intestinal injury [1] = details: Non-Patent Literature 1 (Wallace et al., Gastroenterology 2011); cited from earlier work
small intestinal injury [2] = details: rat, in vivo
Procedure: (§1) The animals were allowed to free access to a solid diet (CE-2, CLEA Japan, Inc.) and tap water.
(§2) At the start of the experiments, the blood was collected from the tail vein with hematocrit capillary tubes (Thermo Fisher Scientific K.K.) to measure hematocrit values. […] After grouping, the body weight of the animals was measured for nine days, and one of the PPIs (10 mg/kg) was intraperitoneally administered twice a day. For the normal group and the NSAID alone administration groups, vehicle was administered instead of the PPIs. From day 6 of PPI administration, one of the NSAIDs (10 mg/kg) was administered by oral gavage twice a day. For the normal group, vehicle was administered instead of the NSAIDs. For the bifidobacteria administration groups, one strain of the bacteria (1×10^9 cfu (colony forming unit)/animal) was further administered by oral gavage once a day. For the other groups, physiological saline was administered instead of the bifidobacteria. On the final day of the experiments, the hematocrit values were measured again, and the difference between the start and the end of the experiments was calculated and expressed as the rate of change of the hematocrit values. In aspirin administration experiments, the animals were fed with a high-fructose diet (EPS EKISHIN Co., Ltd) from the starting day of PPI administration.
(§3) Bifidobacteria administration was not performed. […]

small intestinal injury [3] = assay: Comparative Example 1: degree of small intestinal injury induction by sulindac and omeprazole, rate of change of hematocrit values; details: rats; sulindac as NSAID + omeprazole as PPI; no bifidobacteria; FIG. 10
Procedure: as §1, §2, §3

[4] = tested on: small intestinal injury induced by NSAID and PPI; assay: Test 1: inhibitory effects on NSAID and PPI induced small intestinal injury, rate of change of hematocrit values; format: in vivo, Wister male rats; details: rats, bacteria 1×10^9 cfu/animal oral once a day
Procedure: Frozen stocks of the following bacterial strains were statically cultured in GAM broth at 37° C. for 24 hours: the Bifidobacterium bifidum G9-1 strain (B. bifidum G9-1) (Accession No. NITE BP-817), the Bifidobacterium longum reference strain JCM (registered trademark) 1217^T (B. longum JCM 1217) (purchased from Japan Collection of Microorganisms (JCM), RIKEN BioResource Research Center), and the Bifidobacterium infantis reference strain JCM 1222T (B. infantis JCM 1222) (purchased from JCM). Each of the bacterial liquid cultures was inoculated into fresh GAM broth at a ratio (by volume) of liquid culture to GAM broth of 1:100, and statically cultured at 37° C. for 24 hours. […]
Small intestinal injury was induced by a combination of (S)-(+)-2-(6-methoxy-2-naphthyl)propionic acid (naproxen, Tokyo Chemical Industry Co., Ltd., dissolved in a 5% NaHCO3 solution; also called NAP) and omeprazole (omz) or by a combination of ibuprofen (Ibu) and omeprazole (omz). […] That is, the effect of B. bifidum on recovery from small intestinal injury induced by ibuprofen and omeprazole when compared with the effect of B. bifidum on recovery from small intestinal injury induced by naproxen and omeprazole was calculated by the following formula, taking the latter effect as 1.

## COc1ccc2cc([C@H](C)C(=O)O)ccc2c1 [Naproxen, (S)-(+)-2-(6-methoxy-2-naphthyl)propionic acid]
Small intestinal injury [1]
  induction of small intestinal injury by naproxen in combination with omeprazole: induce small intestinal injury

## CC1=C(CC(=O)O)c2cc(F)ccc2/C1=C\c1ccc([S+](C)[O-])cc1 (centres unmarked) [sulindac]
Small intestinal injury [2]
  induction of small intestinal injury by combination of sulindac and omeprazole: does not induce small intestinal injury
Small intestinal injury [3]
  reduction of the hematocrit values induced by sulindac in combination with omeprazole: did not induce reduction of the hematocrit values

## Bifidobacterium longum
[4]; ibuprofen 10 mg/kg oral + lansoprazole 10 mg/kg i.p. twice a day, FIG. 7
  inhibitory effect on small intestinal injury (hematocrit reduction) induced by ibuprofen and lansoprazole: higher inhibitory effect
[4]; ibuprofen 10 mg/kg oral + omeprazole 10 mg/kg i.p. twice a day, FIG. 4
  inhibitory effect on small intestinal injury (hematocrit reduction) induced by ibuprofen and omeprazole: higher inhibitory effect
